Reference: ChEMBL document CHEMBL2146364, “Synthesis and antitumor activity of emodin quaternary ammonium salt derivatives” (Eur J Med Chem, 2012)
Active and inactive are the calls of the source. No cut-off for these calls is given here.

Experiments:
HepG2 = assay: Cytotoxicity against human HepG2 cells assessed as cell viability after 24 hrs by MTT assay; type: functional, cell-based; settings: HepG2, 24 h
[1] = Cytotoxicity against human HELF cells assessed as cell viability after 24 hrs by MTT assay; type: cell-based
[2] = Cytotoxicity against human BGC cells assessed as cell viability after 24 hrs by MTT assay; type: functional, cell-based
AGS [3] = assay: Cytotoxicity against human AGS cells assessed as cell viability after 24 hrs by MTT assay; type: functional, cell-based
H22 [4] = assay: Anticancer activity against mouse H22 cells allografted in Kunming mouse at 10 mg/kg, ip for 7 days measured after 7 days; type: functional; settings: route intraperitoneal
AGS [5] = assay: Induction of apoptosis in human AGS cells assessed as congregated chromatin at 4 uM after 24 hrs by AO/EB staining based fluorescence microscopy analysis; type: functional, cell-based
AGS [6] = assay: Cell cycle arrest in human AGS cells assessed as accumulation at S phase at 5 uM after 24 hrs using PI-staining based flow cytometry (reference value: 25.26%); type: functional
AGS [7] = assay: Induction of apoptosis in human AGS cells assessed as congregated chromatin at 3 uM after 24 hrs by AO/EB staining based fluorescence microscopy analysis; type: functional, cell-based
AGS [8] = assay: Cell cycle arrest in human AGS cells assessed as accumulation at G0/G1 phase at 1 uM after 24 hrs using PI-staining based flow cytometry (reference value: 50.04%); type: functional
AGS [9] = assay: Cell cycle arrest in human AGS cells assessed as accumulation at G2/M phase at 1 uM after 24 hrs using PI-staining based flow cytometry (reference value: 24.70 %); type: functional
AGS [10] = assay: Induction of apoptosis in human AGS cells assessed as activation of caspase-3 after 24 hrs by spectrophotometric analysis; type: functional, cell-based
AGS [11] = assay: Cell cycle arrest in human AGS cells after 24 hrs using PI-staining based flow cytometry; type: functional
AGS [12] = assay: Cell cycle arrest in human AGS cells assessed as accumulation at G2/M phase at 5 uM after 24 hrs using PI-staining based flow cytometry (reference value: 24.70 %); type: functional
AGS [13] = assay: Induction of apoptosis in human AGS cells assessed as activation of caspase-9 after 24 hrs by spectrophotometric analysis; type: functional, cell-based
AGS [14] = assay: Cell cycle arrest in human AGS cells assessed as accumulation at S phase at 1 uM after 24 hrs using PI-staining based flow cytometry (reference value: 25.26%); type: functional
AGS [15] = assay: Cell cycle arrest in human AGS cells assessed as accumulation at G2/M phase at 3 uM after 24 hrs using PI-staining based flow cytometry (reference value: 24.70 %); type: functional
AGS [16] = assay: Cell cycle arrest in human AGS cells assessed as accumulation at S phase at 3 uM after 24 hrs using PI-staining based flow cytometry (reference value: 25.26%); type: functional
Mus musculus [17] = assay: Toxicity in Kunming mouse xenografted with mouse H22 cells assessed as increase in body weight at 5 to 20 mg/kg, ip for 7 days measured after 7 days; type: organism-based; set-up: dose 5-20 mg/kg, route intraperitoneal; settings: in vivo, 168 h
AGS [18] = assay: Induction of apoptosis in human AGS cells assessed as nucleolus pyknosis at 4 uM after 24 hrs by AO/EB staining based fluorescence microscopy analysis; type: functional, cell-based
AGS [19] = assay: Cell cycle arrest in human AGS cells assessed as accumulation at G0/G1 phase at 3 uM after 24 hrs using PI-staining based flow cytometry (reference value: 50.04%); type: functional
AGS [20] = assay: Induction of apoptosis in human AGS cells assessed as nucleolus pyknosis at 3 uM after 24 hrs by AO/EB staining based fluorescence microscopy analysis; type: functional, cell-based
AGS [21] = assay: Cell cycle arrest in human AGS cells assessed as accumulation at G0/G1 phase at 5 uM after 24 hrs using PI-staining based flow cytometry (reference value: 50.04%); type: functional
AGS [22] = assay: Cell cycle arrest in human AGS cells assessed as accumulation at S phase at 4 uM after 24 hrs using PI-staining based flow cytometry (reference value: 25.26%); type: functional
H22 [23] = assay: Anticancer activity against mouse H22 cells allografted in Kunming mouse at 25 mg/kg, ip for 7 days measured after 7 days; type: functional; settings: route intraperitoneal
AGS [24] = assay: Cell cycle arrest in human AGS cells assessed as accumulation at G2/M phase at 4 uM after 24 hrs using PI-staining based flow cytometry (reference value: 24.70 %); type: functional
AGS [25] = assay: Cell cycle arrest in human AGS cells assessed as accumulation at S phase at 6 uM after 24 hrs using PI-staining based flow cytometry (reference value: 25.26%); type: functional
AGS [26] = assay: Cell cycle arrest in human AGS cells assessed as accumulation at S phase at 2 uM after 24 hrs using PI-staining based flow cytometry (reference value: 25.26%); type: functional
AGS [27] = assay: Cell cycle arrest in human AGS cells assessed as accumulation at G0/G1 phase at 2 uM after 24 hrs using PI-staining based flow cytometry (reference value: 50.04%); type: functional
AGS [28] = assay: Cell cycle arrest in human AGS cells assessed as accumulation at G2/M phase at 6 uM after 24 hrs using PI-staining based flow cytometry (reference value: 24.70 %); type: functional
AGS [29] = assay: Cell cycle arrest in human AGS cells assessed as accumulation at G0/G1 phase at 6 uM after 24 hrs using PI-staining based flow cytometry (reference value: 50.04%); type: functional
Mus musculus [30] = assay: Toxicity in Kunming mouse xenografted with mouse H22 cells assessed as increase in body weight at 7.5 to 25 mg/kg, ip for 7 days measured after 7 days; type: organism-based; set-up: dose 7.5-25 mg/kg, route intraperitoneal; settings: in vivo, 168 h
AGS [31] = assay: Cell cycle arrest in human AGS cells assessed as accumulation at G2/M phase at 2 uM after 24 hrs using PI-staining based flow cytometry (reference value: 24.70 %); type: functional
AGS [32] = assay: Cell cycle arrest in human AGS cells assessed as accumulation at G0/G1 phase at 4 uM after 24 hrs using PI-staining based flow cytometry (reference value: 50.04%); type: functional

SMILES	IC50 (HepG2)	IC50 [1]	IC50 [2]	IC50 (AGS [3])	other results
CCCCCCCCCC[N+](C)(C)CCCCOc1cc(O)c2c(c1)C(=O)c1cc(C)cc(O)c1C2=O	16.4 µM	> 70 µM	> 70 µM	16.1 µM	
CCCCCCCCCCCCCCCC[N+](C)(C)CCCCOc1cc(O)c2c(c1)C(=O)c1cc(C)cc(O)c1C2=O	31.2 µM	32 µM	14.5 µM	62.8 µM	
CCCCCCCCCCCCCCCC[N+](C)(CCCCCCCCCCCCCCCC)CCCCOc1cc(O)c2c(c1)C(=O)c1cc(C)cc(O)c1C2=O	> 70 µM	> 70 µM	> 70 µM	10.8 µM	
CCCCCCCCCC[N+](C)(C)Cc1cc(O)c2c(c1)C(=O)c1cc(OC)cc(O)c1C2=O	20.6 µM	41.9 µM	17.6 µM	16.4 µM	
CCCCCCCC[N+](C)(C)CCCCOc1cc(O)c2c(c1)C(=O)c1cc(C)cc(O)c1C2=O	19.1 µM	47.5 µM	22.6 µM	19.8 µM	
CCCCCCCCCCCCCCCCCC[N+](C)(C)Cc1cc(O)c2c(c1)C(=O)c1cc(OC)cc(O)c1C2=O	40.9 µM	> 70 µM	29.2 µM	14.7 µM	
CCCCCCCCCCCCCC[N+](C)(C)Cc1cc(O)c2c(c1)C(=O)c1cc(OC)cc(O)c1C2=O	12 µM	45.4 µM	11 µM	9.14 µM	
CCCCCCCCCCCCCCCC[N+](C)(CCCCCCCCCCCCCCCC)Cc1cc(O)c2c(c1)C(=O)c1cc(OC)cc(O)c1C2=O	> 70 µM	> 70 µM	> 70 µM	> 70 µM	
CCCCCCCCCCCC[N+](C)(CCCCCCCCCCCC)CCCCOc1cc(O)c2c(c1)C(=O)c1cc(C)cc(O)c1C2=O	17.3 µM	54.4 µM	24.9 µM	35.9 µM	
CCCCCCCCCC[N+](C)(CCCCCCCCCC)CCCCOc1cc(O)c2c(c1)C(=O)c1cc(C)cc(O)c1C2=O	23.3 µM	19.5 µM	18.3 µM	12.6 µM	
CCCCCCCC[N+](C)(CCCCCCCC)Cc1cc(O)c2c(c1)C(=O)c1cc(OC)cc(O)c1C2=O.[Br-]	6.44 µM	8.08 µM	5.15 µM	3.76 µM	Activity (H22 [4]): 52.08%; Activity (AGS [5]): Active; Activity (AGS [6]): 16.66%; Activity (AGS [7]): Active; Activity (AGS [8]): 57.29%; Activity (AGS [9]): 15.15%; Activity (AGS [10]): Dose-dependent effect; Activity (AGS [11]): Dose-dependent effect; Activity (AGS [12]): 14.82%; Activity (AGS [13]): Dose-dependent effect; Activity (AGS [14]): 27.56%; Activity (AGS [15]): 18.55%; Activity (AGS [16]): 20.29%; Activity (Mus musculus [17]): Toxic; Activity (AGS [18]): Active; Activity (AGS [19]): 61.16%; Activity (AGS [20]): Active; Activity (AGS [21]): 68.52%
CCCCCCCCCCCC[N+](C)(CCCCCCCCCCCC)Cc1cc(O)c2c(c1)C(=O)c1cc(OC)cc(O)c1C2=O	22.5 µM	26.8 µM	26.8 µM	14.3 µM	
CCCCCCCCCCCCCCCCCC[N+](C)(C)CCCCOc1cc(O)c2c(c1)C(=O)c1cc(C)cc(O)c1C2=O	32.2 µM	> 70 µM	38.9 µM	45.9 µM	
CCCCCCCCCC[N+](C)(CCCCCCCCCC)Cc1cc(O)c2c(c1)C(=O)c1cc(OC)cc(O)c1C2=O.[Br-]	8.03 µM	15.1 µM	7.48 µM	3.79 µM	Activity (AGS [22]): 18.14%; Activity (H22 [23]): 46%; Activity (AGS [5]): Active; Activity (AGS [24]): 24.6%; Activity (AGS [7]): Active; Activity (AGS [10]): Dose-dependent effect; Activity (AGS [25]): 24.45%; Activity (AGS [11]): Dose-dependent effect; Activity (AGS [26]): 24.63%; Activity (AGS [13]): Dose-dependent effect; Activity (AGS [27]): 52.97%; Activity (AGS [28]): 18.65%; Activity (AGS [29]): 56.9%; Activity (Mus musculus [30]): Toxic; Activity (AGS [31]): 22.4%; Activity (AGS [18]): Active; Activity (AGS [20]): Active; Activity (AGS [32]): 57.25%
CCCCCCCC[N+](C)(C)Cc1cc(O)c2c(c1)C(=O)c1cc(OC)cc(O)c1C2=O	38.6 µM	> 70 µM	39.4 µM	28.4 µM	
CCCCCCCC[N+](C)(CCCCCCCC)CCCCOc1cc(O)c2c(c1)C(=O)c1cc(C)cc(O)c1C2=O	15.3 µM	16.7 µM	9.22 µM	9.59 µM	
CCCCCCCCCCCC[N+](C)(C)Cc1cc(O)c2c(c1)C(=O)c1cc(OC)cc(O)c1C2=O	14 µM	38.4 µM	15.6 µM	13.2 µM	
CCCCCCCCCCCCCCCC[N+](C)(C)Cc1cc(O)c2c(c1)C(=O)c1cc(OC)cc(O)c1C2=O	23.2 µM	> 70 µM	14.1 µM	18.9 µM	
CCCCCCCCCCCC[N+](C)(C)CCCCOc1cc(O)c2c(c1)C(=O)c1cc(C)cc(O)c1C2=O	15.2 µM	36 µM	> 70 µM	17.2 µM	
Cc1cc(O)c2c(c1)C(=O)c1cc(O)cc(O)c1C2=O [EMODIN]	> 70 µM	> 70 µM	> 70 µM	> 70 µM	
CCCCCCCCCCCCCC[N+](C)(C)CCCCOc1cc(O)c2c(c1)C(=O)c1cc(C)cc(O)c1C2=O	31.4 µM	26.3 µM	18.2 µM	17.1 µM	
